Results taken from patent US9512315B2, “Quenching dye for labeling biomolecules and method for preparing the same” (DKC CORPORATION, priority 2013, dated 2016).
“And” between values parts separate entries of the source, which are not always exact repeats. Identical values can stand only once.

What was measured:
Assay type in all cases: physicochemical
[1] = Test Example 1: comparison of absorption spectra; settings: for negative absorption: FIG. 1, range of 750-800 nm
Procedure: (§1) LC/MS was measured by ESI (electrospray ionization) using the LC/MSD SL of Agilent Technologies. The absorption spectrum and maximum absorption wavelength (λabs) of the synthesized dye were measured with Lambda 45 of PerkinElmer. The emission spectrum and maximum emission wavelength (λfl) were measured with LS-55 of PerkinElmer.
(§2) In order to investigate the absorption intensity and spectrum of the anthraquinone compound according to the present disclosure, the absorption spectra of the compounds of Example 1 and Example 6 and commercially available BHQ-3 as a comparative example were compared. Stock solutions were prepared by dissolving the compounds of Example 1 and Example 6 according to the present disclosure in distilled water. BHQ-3 was dissolved in a small amount of DMSO according to the manufacturer's instructions and diluted with distilled water.

[2] = Maximum absorption wavelength (λabs) of the synthesized dye in PBS
Procedure: as §1

[3] = Solubility in water (stock solution preparation)
Procedure: as §2

negative absorption [1]	λabs (maximum absorption wavelength) [2]	range of absorption spectra, normalized to the maximum absorption intensity ([1]; FIG. 2)	solubility in water [3]	Structure (SMILES)
–	472 nm and 624 nm	–	–	CN(CCCCCCCC(=O)O)c1ccc(/N=N/c2ccc(Nc3cc(S(=O)(=O)O)c(N)c4c3C(=O)c3ccccc3C4=O)c(S(=O)(=O)O)c2)cc1 [Example 5]
negative (−) absorption	–	300-750 nm	not dissolved in water	CCN(CC)c1ccc2nc3ccc(/N=N/c4ccc(N(C)CCCC(=O)O)cc4)cc3[n+](-c3ccccc3)c2c1 [BHQ-3, reference compound]
did not show negative absorption	481 nm and 626 nm	–	–	CN(CCCCCC(=O)O)c1ccc(/N=N/c2ccc(Nc3cc(S(=O)(=O)O)c(N)c4c3C(=O)c3ccccc3C4=O)c(S(=O)(=O)O)c2)cc1 [Example 1]

The remaining lines, values behind:

Structure (SMILES)	negative absorption [1]	λabs (maximum absorption wavelength) [2]	range of absorption spectra, normalized to the maximum absorption intensity ([1]; FIG. 2)	solubility in water [3]
CN(CCCCCCCC(=O)ON1C(=O)CCC1=O)c1ccc(/N=N/c2ccc(Nc3cc(S(=O)(=O)O)c(N)c4c3C(=O)c3ccccc3C4=O)c(S(=O)(=O)O)c2)cc1 [Example 6]	did not show negative absorption	–	–	–
C=CS(=O)(=O)CCNC(=O)CCCCCCCN(C)c1ccc(/N=N/c2ccc(Nc3cc(S(=O)(=O)O)c(N)c4c3C(=O)c3ccccc3C4=O)c(S(=O)(=O)O)c2)cc1 [Example 7]	–	472 nm and 624 nm	–	–
C=CS(=O)(=O)CCNC(=O)CCCCCN(C)c1ccc(/N=N/c2ccc(Nc3cc(S(=O)(=O)O)c(N)c4c3C(=O)c3ccccc3C4=O)c(S(=O)(=O)O)c2)cc1 [Example 3]	–	481 nm and 626 nm	–	–
